{"source": "paper PMC8018653", "about": "“Gender-based differences in brain and plasma pharmacokinetics of letrozole in sprague-dawley rats: Application of physiologically-based pharmacokinetic modeling to gain quantitative insights” (PLoS ONE, 2021)", "key": {"[1]": {"assay": "Steady state plasma pharmacokinetics (4 mg/kg i.p. once daily), NCA", "format": "in vivo, Sprague-Dawley rats", "conditions": "for Cmax / Tmax / AUC(0-t): Sprague-Dawley, rat, ip; for Cmax / Tmax / Rac’ (theoretical/predicted accumulation ratio, Eq 2) / AUC(0-t): plasma; for Cmax: read-out: Cmax, plasma total; for Tmax: read-out: Tmax, plasma total; for AUC 0–12, plasma unbound / AUC 0–24, plasma unbound / Cmax, plasma unbound: fraction unbound 0.38; for AUC(0-t): 4 mg/kg", "experimental": "Age-matched (7–9 weeks) adult female (201–225 g; N = 10) and male (301–325 g; N = 10) jugular vein cannulated Sprague-Dawley rats (Charles River Laboratories) were used for this study. The experiments were conducted in strict accordance with the University of Cincinnati Institutional Animal Care and Use Committee (UC IACUC)-approved protocol (Protocol Number: 10-11-01-01) and all the studies were performed as per the highest international standards of animal welfare outlined by the NIH’s Guide for the Care and Use of Laboratory Animals. Upon arrival, animals were housed individually under pathogen-free, temperature and humidity-controlled environment on a 12/12 h light/dark cycle and were given access to standard chow and water ad libitum (ad-lib). To maintain the patency of the jugular vein catheters, they were flushed with normal saline and locked with the heparin-dextrose solution every other day.\nLetrozole was extracted from the plasma samples using the liquid-liquid extraction technique. Calibration standards were freshly prepared by spiking working letrozole solution into the blank rat plasma to give a concentration curve ranging from 5 to 5000 ng/ml. Briefly, 50 μl of the plasma sample/standard spiked with known letrozole concentration was transferred to a glass tube containing 1 mL of the extraction solvent methyl-tertiary-butyl ether. All the samples were then vortex mixed for 40 sec and centrifuged for 5 min. 800 μl of the supernatant was decanted into a clean test tube and evaporated to dryness using a CentriVap evaporator. The precipitate was reconstituted in 100 μl of the mobile phase and vortex mixed, following which, 50 μl sample volume was injected onto the HPLC system for analysis. The dialysis samples, on the other hand, were injected directly onto HPLC."}, "[2]": {"assay": "Whole body PBPK model with multi-compartment brain model (Simcyp Animal Simulator V17)", "parameters": "species or system rat", "from_the_text": "Simcyp Animal Simulator V17 (Certara Inc.) was employed for developing a bottom-up whole body PBPK model incorporating the specified multi-compartment brain model. Based on its anatomy and physiology, the whole brain is described by three compartments, viz. brain blood, brain mass and cerebrospinal fluid (CSF) as illustrated in Fig 1 (Simcyp® Rat Simulator). For model development, the physiological/ system-specific parameters were inferred from the existing rodent species within the animal simulator while, the key drug- specific parameters used are summarized in Table 1. Briefly, all the physiochemical and binding to blood components (plasma proteins and erythrocytes) parameters of letrozole were derived from expansive literature review. The first-order rate of absorption (Ka) and bioavailability following oral administration and systemic clearance values in male and female rats were obtained from a previously reported pharmacokinetic study and the first-order absorption model best fit the letrozole data. Full-PBPK model was employed for drug distribution while the Rodgers and Rowland method or “Method 2”, as defined in Simcyp v17, predicted the volume of distribution (Vss). For the multi-compartment brain model, the passive permeability-surface area product on the BBB (PSB) was determined using the Crone- Renkin Equation [25, 26]: PSB=−Fpfln(1−Kin/Fpf) (3) where, Fpf is the cerebral blood or perfusion flow rate and Kin is the brain uptake clearance. We used 0.036 mL/sec/g as the Fpf for letrozole, based on a previous study that obtained an average cerebral perfusion flow rate value for lipophilic compounds [25]. […] The passive permeability-surface area product on the blood-cerebrospinal fluid barrier (BCSFB), PSC, was assumed as half of the PSB [19, 27] while the passive permeability-surface area product on the cerebrospinal fluid-brain barrier (CSFBB), PSE, was set at 80 mL/min, assuming a high permeability of this barrier. Brain ECF concentrations were predicted using the in vivo unbound fraction in the brain (fu, brain) for letrozole multiplied by the simulated total brain concentrations. The fu, brain for letrozole was experimentally determined in both healthy and tumor-bearing female Sprague-Dawley rats (N = 4/ group). Following single dose intraperitoneal administration of 4 mg/kg letrozole, both brain ECF (representative of unbound drug concentration in the brain) and whole brain tissue samples were collected at the same corresponding timepoint around the Tmax (~6 hrs) of letrozole in brain ECF and the fu, brain was calculated based on the ratio of observed brain ECF to the whole brain tissue homogenate concentrations of letrozole (0.58 ± 0.19; mean ± SD).\nFor evaluation of model predictions, the PBPK model developed was used to simulate extravascular administration of single/ multiple doses of letrozole (4 mg/kg) in rodents. To evaluate the predictive performance of the PBPK model, we compared the ratio of the predicted exposure change (Cmax and AUC ratios) against the observed data. A 1.25-fold under‐ or over‐prediction was considered good and within 1.5‐fold was deemed reasonable."}, "C6 orthotopic tumor": {"test_system": "C6 orthotopic tumor", "parameters": "method as in PMID 25695958", "conditions": "C6 orthotopic glioma, rats, 4 mg/kg; cited from earlier work"}, "[3]": {"parameters": "method as in PMID 23712697", "conditions": "in situ mouse brain perfusion; cited from earlier work"}, "[4]": {"conditions": "female rats, steady state, 4 mg/kg i.p. daily for 11 days"}, "[5]": {"conditions": "male rats, steady state, 4 mg/kg i.p. daily for 5 days"}, "[6]": {"conditions": "female rats, steady state, 11 days"}, "[7]": {"conditions": "male rats, steady state, 5 days"}, "[8]": {"conditions": "females, steady state, 4 mg/kg for 11 days"}, "[9]": {"conditions": "males, steady state, 4 mg/kg for 5 days"}}, "note": "“Also recorded” adds a separate entry of the source. Where two headings read alike, the source gives them in different places. Marks after values point to notes of the source that are not given here.", "data": [{"smiles": "N#Cc1ccc(C(c2ccc(C#N)cc2)n2cncn2)cc1", "note": "[letrozole]", "values": [{"measurement": "Cmax", "setting": "[1]; [4]", "result": 4830, "unit": "ng/mL"}, {"measurement": "Tmax", "setting": "[1]; [4]", "result": 5.3, "unit": "h"}, {"measurement": "Cmax", "setting": "[1]; [5]", "result": 1490, "unit": "ng/mL"}, {"measurement": "Tmax", "setting": "[1]; [5]", "result": 3.3, "unit": "h"}, {"measurement": "Rac plasma (observed accumulation ratio, AUC0-12)", "setting": "[1]; female rats, Day 11 / Day 1", "result": 4.2}, {"measurement": "Rac plasma (observed accumulation ratio, Cmax)", "setting": "[1]; female rats, Day 11 / Day 1", "result": 4.0}, {"measurement": "Rac’ (theoretical/predicted accumulation ratio, Eq 2)", "setting": "[1]; female rats", "result": 2.6}, {"measurement": "CL (systemic clearance), plasma", "setting": "[1]; [4]", "result": "39.3 (5.5)* ml/h/kg"}, {"measurement": "AUC 0–12, plasma unbound", "setting": "[1]; [6]", "result": "18734 (2360) h.ng/ml"}, {"measurement": "AUC 0–24, plasma unbound", "setting": "[1]; [6]", "result": "39129 (5267) h.ng/ml"}, {"measurement": "Cmax, plasma unbound", "setting": "[1]; [6]", "result": "1835 (359) ng/ml"}, {"measurement": "AUC(0-t)", "setting": "[1]; female, female rats, steady state, 4 mg/kg i.p. daily for 11 days, read-out: AUC 0–12, plasma total", "result": 49300, "unit": "ng·h/mL"}, {"measurement": "AUC(0-t)", "setting": "[1]; female, female rats, steady state, 4 mg/kg i.p. daily for 11 days, read-out: AUC 0–24, plasma total", "result": 103000, "unit": "ng·h/mL"}, {"measurement": "AUC(0-t)", "setting": "[1]; female, female rats, steady state, 4 mg/kg i.p. daily for 11 days, read-out: plasma AUC 0–24", "result": 103000, "unit": "ng·h/mL"}, {"measurement": "observed accumulation at steady state (plasma Cmax and AUC0-12)", "setting": "[1]; male rats", "result": "approximately 1.4 fold"}, {"measurement": "Rac plasma (observed accumulation ratio, AUC0-12)", "setting": "[1]; male rats, Day 5 / Day 1", "result": 1.4}, {"measurement": "Rac plasma (observed accumulation ratio, Cmax)", "setting": "[1]; male rats, Day 5 / Day 1", "result": 1.4}, {"measurement": "Rac’ (theoretical/predicted accumulation ratio, Eq 2)", "setting": "[1]; male rats", "result": 1.2}, {"measurement": "CL (systemic clearance), plasma", "setting": "[1]; [5]", "result": "200.6 (98) ml/h/kg"}, {"measurement": "AUC 0–12, plasma unbound", "setting": "[1]; [7]", "result": "5624 (2430) h.ng/ml"}, {"measurement": "AUC 0–24, plasma unbound", "setting": "[1]; [7]", "result": "9424 (4660) h.ng/ml"}, {"measurement": "Cmax, plasma unbound", "setting": "[1]; [7]", "result": "566 (209) ng/ml"}, {"measurement": "AUC(0-t)", "setting": "[1]; male, male rats, steady state, 4 mg/kg i.p. daily for 5 days, read-out: AUC 0–12, plasma total", "result": 14800, "unit": "ng·h/mL"}, {"measurement": "AUC(0-t)", "setting": "[1]; male, male rats, steady state, 4 mg/kg i.p. daily for 5 days, read-out: AUC 0–24, plasma total", "result": 24800, "unit": "ng·h/mL"}, {"measurement": "AUC(0-t)", "setting": "[1]; male, male rats, steady state, 4 mg/kg i.p. daily for 5 days, read-out: plasma AUC 0–24", "result": 24800, "unit": "ng·h/mL"}, {"measurement": "systemic clearance, difference between male and female rats", "setting": "[1]; steady state", "result": "approximately 5.0 fold"}, {"measurement": "AUC 0–12, brain ECF, predicted/observed ratio", "setting": "[2]; females, single dose 4 mg/kg", "result": 0.81}, {"measurement": "AUC 0–72, plasma, predicted/observed ratio", "setting": "[2]; females, single dose 4 mg/kg", "result": 0.95}, {"measurement": "Cmax, brain ECF, predicted/observed ratio", "setting": "[2]; females, single dose 4 mg/kg", "result": 0.71}, {"measurement": "Cmax, plasma, predicted/observed ratio", "setting": "[2]; females, single dose 4 mg/kg", "result": 0.90}, {"measurement": "Half-life t1/2, plasma, predicted/observed ratio", "setting": "[2]; females, single dose 4 mg/kg", "result": 1.29}, {"measurement": "AUC 0–12, brain ECF, predicted/observed ratio", "setting": "[2]; [8]", "result": 0.78}, {"measurement": "AUC 0–24, plasma, predicted/observed ratio", "setting": "[2]; [8]", "result": 0.77}, {"measurement": "Cmax, brain ECF, predicted/observed ratio", "setting": "[2]; [8]", "result": 0.66}, {"measurement": "Cmax, plasma, predicted/observed ratio", "setting": "[2]; [8]", "result": 0.76}, {"measurement": "AUC 0–12, brain ECF, predicted/observed ratio", "setting": "[2]; males, single dose 4 mg/kg", "result": 1.29}, {"measurement": "AUC 0–72, plasma, predicted/observed ratio", "setting": "[2]; males, single dose 4 mg/kg", "result": 0.85}, {"measurement": "Cmax, brain ECF, predicted/observed ratio", "setting": "[2]; males, single dose 4 mg/kg", "result": 1.19}, {"measurement": "Cmax, plasma, predicted/observed ratio", "setting": "[2]; males, single dose 4 mg/kg", "result": 0.75}, {"measurement": "Half-life t1/2, plasma, predicted/observed ratio", "setting": "[2]; males, single dose 4 mg/kg", "result": 1.45}, {"measurement": "AUC 0–12, brain ECF, predicted/observed ratio", "setting": "[2]; [9]", "result": 1.07}, {"measurement": "AUC 0–24, plasma, predicted/observed ratio", "setting": "[2]; [9]", "result": 0.87}, {"measurement": "Cmax, brain ECF, predicted/observed ratio", "setting": "[2]; [9]", "result": 0.96}, {"measurement": "Cmax, plasma, predicted/observed ratio", "setting": "[2]; [9]", "result": 0.80}, {"measurement": "in vivo efficacy (tumor mass / volume)", "setting": "C6 orthotopic tumor", "result": "marked reduction in the tumor mass; also recorded: marked reduction in tumor volume"}, {"measurement": "Kin (brain uptake clearance)", "setting": "[3]", "result": "0.422 ± 0.068", "unit": "mL/min/g brain"}]}]}
